Measured values taken from paper PMC5599584, “Kinetic adaptation of human Myo19 for active mitochondrial transport to growing filopodia tips” (Scientific Reports, 2017).
Values belong to the molecule of their own block, whether it stands above or below them.

Tests used:
[1] = target: T1, Acto·Myo19-3IQ (Homo sapiens, UniProt Q96H55); experiment: stopped-flow mant FRET, association kinetics; assay type: binding; design: with Calmodulin; Actin, alpha skeletal muscle (rabbit or chicken skeletal muscle F-actin); details: KMg50 buffer pH 7.3, 25 °C; bound to F-actin; labelled compound
[2] = target: T2, Myo19-3IQ (Homo sapiens, UniProt Q96H55); experiment: stopped-flow mant FRET / single turnover; assay type: binding; details: read-out: K 1T
T2 construct: with Calmodulin

[3] = target: T2, Myo19-3IQ; assay type: biochemical; details: no actin; 250 µM ATP (initial)
[4] = target: T1, Acto·Myo19-3IQ; experiment: biochemical
[5] = target: F-actin (actin filaments from rabbit or chicken skeletal muscle) (rabbit or chicken) (UniProt P68135)

T1 sequence (Q96H55 whole entry, looked up): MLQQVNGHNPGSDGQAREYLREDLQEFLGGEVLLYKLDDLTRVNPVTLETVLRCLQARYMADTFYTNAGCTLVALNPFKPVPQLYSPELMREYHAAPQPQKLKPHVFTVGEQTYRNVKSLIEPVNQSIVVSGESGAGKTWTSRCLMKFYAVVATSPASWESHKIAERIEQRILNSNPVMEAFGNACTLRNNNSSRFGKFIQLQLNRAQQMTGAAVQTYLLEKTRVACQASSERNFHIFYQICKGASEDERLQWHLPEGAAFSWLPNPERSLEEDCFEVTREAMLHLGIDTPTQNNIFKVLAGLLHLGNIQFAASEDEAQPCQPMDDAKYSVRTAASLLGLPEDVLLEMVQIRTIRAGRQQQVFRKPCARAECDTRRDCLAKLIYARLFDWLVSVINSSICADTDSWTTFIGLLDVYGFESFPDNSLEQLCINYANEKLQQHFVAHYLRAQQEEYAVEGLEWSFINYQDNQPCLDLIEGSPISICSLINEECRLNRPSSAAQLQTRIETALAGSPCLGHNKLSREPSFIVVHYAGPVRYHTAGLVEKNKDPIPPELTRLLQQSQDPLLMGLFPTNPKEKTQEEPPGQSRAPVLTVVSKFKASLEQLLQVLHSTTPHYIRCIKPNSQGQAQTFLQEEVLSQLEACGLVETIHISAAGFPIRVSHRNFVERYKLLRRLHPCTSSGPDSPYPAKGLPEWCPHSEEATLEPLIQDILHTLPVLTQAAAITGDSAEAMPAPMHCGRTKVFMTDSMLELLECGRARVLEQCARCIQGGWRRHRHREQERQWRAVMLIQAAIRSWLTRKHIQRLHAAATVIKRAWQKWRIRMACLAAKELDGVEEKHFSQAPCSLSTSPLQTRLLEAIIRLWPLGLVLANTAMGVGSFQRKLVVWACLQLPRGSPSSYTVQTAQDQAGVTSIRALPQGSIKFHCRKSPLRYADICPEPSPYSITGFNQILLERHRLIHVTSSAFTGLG
T2 sequence (Q96H55 whole entry, looked up): as above

Kd [2]: ~0.04 µM
Molecule: CNc1ccccc1C(=O)O[C@H]1C[C@H](n2cnc3c(N)ncnc32)O[C@@H]1COP(=O)(O)OP(=O)(O)OP(=O)(O)O [mT]
stopped-flow mant FRET, association kinetics [1]: mT bound similarly to Myo19-3IQ or Acto·Myo19-3IQ

Kd [4]: 476 ± 116 µM
Molecule: Nc1ncnc2c1ncn2[C@@H]1O[C@H](COP(=O)(O)OP(=O)(O)OP(=O)(O)O)[C@@H](O)[C@H]1O [ATP]
quenched-flow Pi burst; NADH-coupled ATPase [3]: Myo19-3IQ (in the absence of actin) mixed with ATP yielded a Pi burst amplitude

K ATPase: actin concentration at the half maximal steady-state ATPase activity (NADH-coupled assay, 1-100 µM F-actin) [5]: 11.6 µM
Molecule: Myo19-3IQ (human Myo19 motor domain with three IQ light chain-binding motifs, with its associated calmodulin light chain) (from UniProt P0DP23 1-149) (complex)
